Data from US20230058623A1, “NOVEL HETEROARYL-TRIAZOLE COMPOUNDS AS PESTICIDES” (Bayer Aktiengesellschaft, priority 2019, published 2023).

Key:
Assay type in all cases: in vivo
[1] = system: green peach aphid (Myzus persicae); assay: Myzus persicae oral test; details: 120 h, read-out: activity (mortality)
How it was run: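 Aphids of mixed population ingest the compound preparation by sucking through a parafilm sheet stretched over wells holding test solution plus IPL41 insect medium (33%+15% sugar). Kill rate in percent is determined five days later.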

[2] = system: larvae of the banded cucumber beetle (Diabrotica balteata); assay: Diabrotica balteata spray test; details: 168 h, after 7 days, wheat seeds, read-out: activity (efficacy: seedlings grown); for pest or weed control at 32 µg/disc, 100 g/ha: application rate 100 g/ha (=32 μg/well); for pest or weed control at 160 µg/disc, 500 g/ha: application rate 500 g/ha (=160 μg/well)
How it was run: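 Efficacy (%) read 7 days after infesting treated seedlings with 10-20 banded cucumber beetle larvae, 100% meaning growth as in uninfected untreated control and 0% no growth. Test solutions in water containing 1000 ppm emulsifier were sprayed onto wheat seeds germinated for 1 day on agar.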

[3] = system: adult unfed cat fleas (Ctenocephalides felis); assay: Ctenocephalides felis oral test; details: 48 h, read-out: activity (mortality)
How it was run: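 About 20 adult unfed cat fleas fed through parafilm on citrated cattle blood containing compound (from a DMSO concentrate). Blood held at 37° C, fleas at room temperature. Mortality in % scored after 2 days.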

[4] = system: adult engorged female ticks (Rhipicephalus microplus); assay: Rhipicephalus (Boophilus) microplus injection test; details: 168 h, application rate 4 μg/tick, egg deposition after 7 days, read-out: activity (efficacy: infertile eggs)
How it was run: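 Abdominal injection, 1 μL compound/DMSO, n=5 engorged adult females; climate-chamber incubation. Readout d7: fertile egg laying; doubtful eggs held to hatch (~42 d). % efficacy = infertile eggs (100% all infertile).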

[5] = system: larvae of the southern green stink bug (Nezara viridula); assay: Nezara viridula spray test; details: 96 h, application rate 500 g/ha, after 4 days, barley plants, read-out: activity (mortality)
How it was run: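 Barley plants sprayed with the active compound in emulsifier-containing water, then infested with stink bug larvae. Mortality scored in % after 4 days, with 100% meaning all insects killed.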

[6] = system: adult mosquitoes Anopheles funestus strain FUMOZ-R; assay: Anopheles funestus test (ANPHFU surface treatment & contact assay); details: surface concentration 20 mg/m^2, exposure 30 minutes, 24 hours after contact, read-out: efficacy (mortality)
Procedure: Anopheles funestus Test (ANPHFU Surface Treatment & Contact Assay)
Solvent: Aceton+2000 ppm rapeseed oil methyl ester (RME)
In order to produce a sufficient, active ingredient containing solution it is necessary to solve the test compound in the solvent-mix (acetone at 2 mg/ml/RME 2000 ppm). This solution is pipetted onto a glazed tile and after evaporation of the acetone, adult mosquitoes of the species Anopheles funestus strain FUMOZ-R (Hunt et al., Med. Vet. Entomol. 2005 September; 19(3): 271-275) are placed onto the dried surface. The exposure time is 30 minutes.
Mortality in percent (%) is determined 24 hours after contact of the insects to the treated surface. 100% mortality means that all tested insects are dead, whereas 0% means that no insect died.

[7] = system: fall armyworm larvae (Spodoptera frugiperda); assay: Spodoptera frugiperda spray test; details: 168 h, application rate 100 g/ha, after 7 days, maize leaf sections
How it was run: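 Read-out: % larval mortality at day 7, where 100% means all killed and 0% none killed. Compound diluted in water with 1000 ppm emulsifier, sprayed onto Zea mays leaf sections; dried sections then infested with S. frugiperda larvae.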

[8] = system: adult flies Musca domestica strain WHO-N; assay: Musca domestica test (MUSCDO surface treatment & contact assay); details: surface concentration 20 mg/m^2, exposure 30 minutes, 24 hours after contact, read-out: efficacy (mortality)
How it was run: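 Compound dissolved at 2 mg/ml in acetone with 2000 ppm RME, applied to glazed tile and dried; adult flies exposed on the surface for 30 min. Percent mortality scored 24 h after contact.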

[9] = system: green peach aphid (Myzus persicae); assay: Myzus persicae spray test; details: foliar, 120 h, after 5 days, Chinese cabbage leaf disks; for mortality at 500 g/ha: application rate 500 g/ha; for mortality at 100 g/ha: application rate 100 g/ha, read-out: activity (mortality)
How it was run: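 Percent kill was recorded 5 days after spraying. Test solutions, prepared with solvent and diluted in 1000 ppm emulsifier water, were applied to Brassica pekinensis leaf disks carrying mixed-instar green peach aphids.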

[10] = system: adult brown dog ticks (Rhipicephalus sanguineus); assay: Rhipicephalus sanguineus in-vitro contact test, adult brown dog ticks; details: application rate 5 μg/cm^2 (=500 g/ha), after 48 hours, read-out: activity (efficacy: ticks dead or moribund)
How it was run: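 Read-out: % efficacy as dead or moribund ticks, judged 48 h after exposure by failure to climb away from a 45-50° C heating plate within 5 min. Tubes were coated with acetone solution (900 ppm = 5 μg/cm^2 surface dose) and held 5-10 adults each at room temperature.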

[11] = system: cattle ticks (Rhipicephalus microplus) strain Parkhurst, SP-resistant; assay: Rhipicephalus (Boophilus) microplus dip test; details: 168 h, application rate 100 ppm, egg deposition after 7 days, read-out: activity (efficacy: infertile eggs)
Procedure: Rhipicephalus (Boophilus) microplus—Dip Test
Test animal: cattle ticks (Rhipicephalus microplus) strain Parkhurst, SP-resistant
Solvent: dimethyl sulfoxide
To produce a suitable preparation of active compound, 10 mg of active compound are dissolved in 0.5 mL solvent, and the concentrate is diluted with water to the desired concentration.
This compound solution is pipetted into tubes. 8-10 engorged, adult, female cattle ticks (Rhipicephalus microplus) are placed in perforated tubes. These tubes are immersed in the aqueous compound solution until the ticks are completely moistened. After the liquid has drained off, the ticks are transferred to a filter paper in a plastic tray and stored in a climate chamber.
After 7 days egg deposition of fertile eggs is monitored. Eggs where fertility is not visible are stored in a climate chamber till hatching after about 42 days. An efficacy of 100% means all eggs are infertile; 0% means all eggs are fertile.

[12] = system: Rhipicephalus (Boophilus) microplus larvae (strain Parkhurst, resistant against synthetic pyrethroids); assay: Rhipicephalus (Boophilus) microplus in-vitro contact test, larval cattle tick; details: after 48 hours, read-out: activity (efficacy: larvae dead or moribund); for pest or weed control at 1 µg/cm2, 100 g/ha: application rate 1 μg/cm^2 (=100 g/ha); for pest or weed control at 5 µg/cm2, 500 g/ha: application rate 5 μg/cm^2 (=500 g/ha)
How it was run: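 Pyrethroid-resistant Parkhurst larvae, 20–50 per tube, were kept 48 h at 27 °C and 85% relative humidity in glass tubes whose inner walls carried a dried acetone film of compound (900 ppm giving 5 μg/cm^2). Dead or moribund larvae, judged by loss of negative geotactic behavior, set percent efficacy.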

[13] = system: adult cat fleas (Ctenocephalides felis); assay: Ctenocephalides felis in-vitro contact test, adult cat flea; details: application rate 5 μg/cm^2 (=500 g/ha), after 48 hours, read-out: activity (efficacy: fleas dead or moribund)
How it was run: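 After 48 h of room-temperature exposure in tubes whose walls carried dried compound residue (5 μg/cm^2, from 900 ppm acetone solution), adult cat fleas (5-10 per tube) were heat-challenged at 45-50° C up to 5 min. Fleas unable to climb away were counted dead or moribund, expressed as % efficacy.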

[14] = system: southern root-knot nematode (Meloidogyne incognita); assay: Meloidogyne incognita test; details: application rate 20 ppm; after 14 days
Procedure: Meloidogyne incognita—Test
Solvent: 125.0 parts by weight of acetone
To produce a suitable preparation of active compound, 1 part by weight of active compound is mixed with the stated amount of solvent, and the concentrate is diluted with water to the desired concentration.
Vessels are filled with sand, a solution of the active ingredient, a suspension containing eggs and larvae of the southern root-knot nematode (Meloidogyne incognita) and salad seeds. The salad seeds germinate and the seedlings grow. Galls develop in the roots.
After 14 days the nematicidal activity is determined based on the percentage of gall formation. 100% means no galls were found and 0% means the number of galls found on the roots of the treated plants was equal to that in untreated control plants.

[15] = system: brown planthopper (Nilaparvata lugens); assay: Nilaparvata lugens spray test; details: 96 h, application rate 500 g/ha, after 4 days, rice plants
Procedure: Nilaparvata lugens—Spray Test
To produce a suitable preparation of active compound, 1 part by weight of active compound is mixed with the stated amount of solvents and is diluted with water, containing an emulsifier concentration of 1000 ppm, to the desired concentration. Further test concentrations are prepared by dilution with emulsifier containing water.
Rice plants (Oryza sativa) are sprayed with a preparation of the active ingredient of the desired concentration and the plants are infested with the brown planthopper (Nilaparvata lugens).
After 4 days mortality in % is determined. 100% means all planthoppers have been killed and 0% means none of the planthoppers have been killed.

[16] = system: adult mosquitoes Aedes aegypti strain MONHEIM; assay: Aedes aegypti test (AEDSAE surface treatment & contact assay); details: 24 hours after contact, read-out: efficacy (mortality); for mortality at 20 mg/m2: surface concentration 20 mg/m^2, exposure 30 minutes
How it was run: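 Compound in acetone (2 mg/ml) with 2000 ppm RME dried onto glazed tile; adults exposed to the treated surface for 30 min. Percent mortality scored 24 h after contact.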

Row | Structure (SMILES) | mortality at 4 ppm [1] | mortality at 100 ppm [3] | pest or weed control at 0.004 mg [4] | mortality at 500 g/ha [5] | mortality at 100 g/ha [7] | mortality at 20 mg/m2 [8] | pest or weed control at 100 ppm [11] | pest or weed control at 1 µg/cm2, 100 g/ha [12] | pest or weed control at 5 µg/cm2, 500 g/ha [12] | pest or weed control at 5 µg/cm2 [13] | mortality at 100 g/ha [9] | other results
1 | CC(NC(=O)c1cc(C(F)(F)F)cc(C(F)(F)F)c1)c1nc(C(F)F)nn1-c1ccc(C(=O)N2CCOCC2)cn1 (racemic) [Example I-83, N-[1-[5-(Difluoromethyl)-2-[5-(morpholine-4-carbonyl)-2-pyridyl]-1,2,4-triazol-3-yl]ethyl]-3,5-bis(trifluoromethyl)benzamide] | 100% | 100% | 100% | 100% | 100% | 80 to 100% |  |  |  |  |  | mortality at 20 ppm [1]: 100%; pest or weed control at 32 µg/disc, 100 g/ha [2]: 100%; pest or weed control at 160 µg/disc, 500 g/ha [2]: 100%; mortality at 20 mg/m2 [6]: 80 to 100%; mortality at 500 g/ha [9]: 90%
2 | Cc1nc([C@H](C)NC(=O)c2cc(C(F)(F)F)cc(C(F)(F)F)c2)n(-c2ncc(C(=O)N3C[C@@H](C)O[C@@H](C)C3)s2)n1 [Example I-107] | 100% | 100% | 100% |  | 100% | 80 to 100% | 100% | 100% | 100% |  |  | pest or weed control at 5 µg/cm2, 500 g/ha [10]: 100%; pest or weed control at 32 µg/disc, 100 g/ha [2]: 100%
3 | COC1CCN(C(=O)c2ccc(-n3ncnc3[C@H](C)NC(=O)c3cc(Cl)cc(C(F)(F)F)c3)nc2)CC1 [Example I-30] | 100% |  | 100% |  |  |  |  | 100% | 100% | 80% | 90% | activity (nematicidal activity based on gall formation) [14]: 90%
4 | Cc1nc([C@H](C)NC(=O)c2cc(C(F)(F)F)cc(C(F)(F)F)c2)n(-c2ccc(C(=O)N3C[C@@H](C)O[C@H](C)C3)cn2)n1 [Example I-47] | 100% | 90% | 100% |  | 100% |  | 100% | 100% | 100% | 100% | 100% | pest or weed control at 5 µg/cm2, 500 g/ha [10]: 100%
5 | C[C@H](NC(=O)c1cc(C(F)(F)F)cc(C(F)(F)F)c1)c1ncnn1-c1ccc(C(=O)N2CCN(C)C(=O)C2)cn1 [Example I-79] | 100% |  |  | 100% | 100% | 80 to 100% |  |  |  |  |  | mortality at 500 g/ha [15]: 100%; mortality at 20 mg/m2 [16]: 80 to 100%; mortality at 20 mg/m2 [6]: 80 to 100%
6 | C[C@H](NC(=O)c1cc(C(F)(F)F)cc(C(F)(F)F)c1)c1ncnn1-c1ccc(C(=O)N2CCC(O)C2)cn1 (some centres unmarked) [Example I-13] | 100% | 100% | 100% |  |  |  | 80% | 100% | 100% |  | 100% | 
7 | C[C@H](NC(=O)c1cc(Cl)cc(C(F)(F)F)c1)c1ncnn1-c1ccc(C(=O)N2CCOCC2)cn1 [Example I-1] | 100% | 100% | 100% | 100% | 100% |  | 80% |  |  | 100% | 100% | pest or weed control at 160 µg/disc, 500 g/ha [2]: 100%; mortality at 500 g/ha [15]: 100%; mortality at 4 mg/m2 ([16]; surface concentration 4 mg/m^2, exposure 30 minutes): 80 to 100%; mortality at 20 mg/m2 [16]: 80 to 100%; mortality at 500 g/ha [9]: 100%
